Patent publication US11298338B2, “Compositions and methods for cancer therapy” (UNIVERSITY OF IOWA RESEARCH FOUNDATION, priority 2016, dated 2022)
Entries after “also recorded” stand apart in the source; their conditions may differ.

Experiments:
CD138+ MM cells = assay: Pharmacological Ascorbic Acid viability assay (Trypan Blue), CD138+ cells from patients; format: cell-based, human
Method: (§1) CD138^+ MM cells and CD138^− non-MM cells were isolated from MGUS, SMM, and MM patient samples using anti-CD138 immunomagnetic beads (Miltenyl Biotec, Auburn, Calif.). […] After incubation, the cells were washed and cultured up to 24 h. Cell counts and viable cell number were determined using Trypan Blue staining.

OCI-MY5 cells = assay: OCI-MY5 cell viability after 1 hr PAA treatment; format: cell-based, human; settings: for effect of pre-treatment on PAA-induced cell death: OCI-MY5, catalase 100 U/ml, NAC 15 mM, DFO 200 μM or BCS 10 μM for 3 hrs before PAA, viability 24 hrs later
Method: FIGS. 2A-2D. […] OCI-MY5 EV (FIG. 2C) and OCI-MY5 OE-Fpn1 (FIG. 2D) were incubated with or without iron (Fe-NTA (FE), 100 μM).
(§2) FIGS. 4A-4E. […] (FIG. 4A) Top bar graph represents OCI-MY5 shRNA-Scramble and shRNA-AIF1 cells incubated with doxycycline to knockdown AIF1 for 2 days. Bottom bar graph represents OCI-MY5 EV and OCI-MY5 OE-AIF1 cells. […] Knockdown and overexpression of AIF1 was confirmed by western blots. […] AIF1, β-actin and γ-H2AX levels were analyzed by western blots. […] AIF1 and β-actin levels were analyzed by western blots. […] N, M, C respectively represent nucleus, mitochondria and cytoplasm. Blue arrows indicate the nuclear membrane and red arrowheads indicate AIF1 gold beads in cytoplasm or mitochondria. Black arrowheads indicate AIF1 gold beads in nuclei.
FIGS. 9A-9B. […] (FIG. 9B) Total RNA was extracted from OCI-MY5 EV and OE cells and Fpn1 mRNA was analyzed by Real time RT-PCR.
Human myeloma cell lines (ARP1, OCI-MY5 and their derivative cell lines) were cultured in RPMI 1640 (Invitrogen, Carlsbad, Calif.), supplemented with 10% heat-inactivated FBS (Invitrogen), penicillin (100 IU/mL), and streptomycin (100 μg/mL) in a humidified incubator at 37° C. and 5% CO2/95% air. To increase cellular iron concentration, ferric nitrilotriacatate (Fe-NTA) was used.

γ-H2AX = assay: Western blot of phosphorylated γ-H2AX in OCI-MY5 cells; format: cell-based, human; settings: OCI-MY5 (FIG. 4C); melphalan alone at high dose, with PAA at lower dose
Method: as §2
(§3) Cells were harvested and lysed with lysis buffer: 150 mM NaCl, 10 mM EDTA, 10 mM Tris, pH 7.4, 1% X-100 Triton. Cell lysates were subjected to SDS-PAGE, transferred onto a pure nitrocellulose membrane (BioRad), and blocked with 5% fat-free milk. […] Membranes were incubated with horseradish peroxidase (HRP)-conjugated anti-mouse secondary antibody (1:10,000, Santa Cruz Biotechnology, cat #: sc-2005) or anti-rabbit secondary antibody (1:10,000, AnaSpec Inc., cat #: AS-28177) for 1 h and chemi-luminescence signals were detected by HRP substrate (EMD Millipore).

[1] = test system: ARP1 MM cells with TRIP13 overexpression; assay: Cell viability of ARP1 cells with TRIP13-OE or EV under drug treatment; format: cell-based, human; settings: for response of TRIP13-OE ARP1 cells to drug: ARP1-OE vs ARP1-EV, different doses (FIGS. 37A, 37B)
[2] = intraperitoneal administration of 4 g ascorbate per kilogram of body weight; cited from earlier work
caspases 3, 8, and 9 = assay: Western blot of caspases in OCI-MY5 WT cells; format: cell-based, human; settings: OCI-MY5 WT after PAA (FIG. 3B)
Method: (§4) FIGS. 3A-3B. […] Red boxes represent zooming image of mitochondria in OCI-MY5 WT cells (left) and OCI-MY5 WT cells treated with PA (right).
(§5) Cells were harvested and lysed with lysis buffer: 150 mM NaCl, 10 mM EDTA, 10 mM Tris, pH 7.4, 1% X-100 Triton. Cell lysates were subjected to SDS-PAGE, transferred onto a pure nitrocellulose membrane (BioRad), and blocked with 5% fat-free milk. Primary antibodies for immunoblotting included: anti-AIF1 (1:1000, Cell Signaling), anti-RIP (1:1000, Santa Cruz Biotechnology), anti-RIP3 (1:1000, Cell Signaling), anti-Caspase3 (1:1000, Cell Signaling), anti-Caspase 8 (1:1000, Cell Signaling), anti-Caspase 9 (1:1000, Cell Signaling) Phosphorylated γH2AX (1:1000, Enzo Life Sciences), and β-actin (1:1000, Cell Signaling) as loading control. Membranes were incubated with horseradish peroxidase (HRP)-conjugated anti-mouse secondary antibody (1:10,000, Santa Cruz Biotechnology, cat #: sc-2005) or anti-rabbit secondary antibody (1:10,000, AnaSpec Inc., cat #: AS-28177) for 1 h and chemi-luminescence signals were detected by HRP substrate (EMD Millipore).

ARP1 MM cells = assay: Human myeloma xenograft mice, tumor burden by IVIS and survival; format: in vivo, NOD.Cγ-Rag1 mice; settings: for MM cell growth (tumor burden) compared to the control group: p<0.05, melphalan, carfilzomib, bortezomib 3 mg/kg, 3 weeks
Method: NOD.Cγ-Rag1 mice 6-8 weeks old (Jackson laboratory, Bar Harbor, Me.) were injected intravenously with ARP1 MM cells (1×10^6) expressing luciferase. […] Bortezomib (3 mg/kg) was injected intraperitoneal once a day, 2 days a week for 3 weeks. The mice were euthanized when humane endpoint was reached.
Xenogen IVIS-200 an in vivo imaging system (IVIS) was used to analyze tumor burden and was indicated by quantification of luciferase intensity of mice pre- and post-treatments.
GEP data were analyzed by One-Way Anova test using log 2 transformed Affymetrix Signals and presented by boxplot. The comparisons of tumor burden were analyzed either by student t-test (2 groups) or by One-Way Anova test (>2 groups). Kaplan-Meier method was performed for survival with the use of SPSS 16.0 software (SPSS, Chicago, Ill.). Two-tailed p value at an alpha level of 0.05 was considered to indicate statistical significance. Graphs were generated using Prism 6 software.

RIP1 and RIP3 = assay: Western blot of RIP1 and RIP3 in OCI-MY5 WT cells; format: cell-based, human; settings: OCI-MY5 WT after PAA (FIG. 3B)
Method: as §4, §5

AIF1 [3] = assay: Western blot of AIF1 cleavage in OCI-MY5 cells; format: cell-based, human; settings: OCI-MY5 cells (FIG. 4C); melphalan 0-80 μM 4 hrs
Method: as §2, §3

AIF1 [4] = assay: Western blot of nuclear AIF1 in ARP1 MM cell line; format: cell-based, human; settings: TRIP13N and TRIP13OE MM cells (FIG. 38D)
CD138- non-MM cells = assay: Pharmacological Ascorbic Acid viability assay (Trypan Blue), CD138- cells from patients; format: cell-based, human; settings: CD138- BM cells from the same MM patients
Method: as §1, with “Pharmacological Ascorbic Acid (PAA) was kindly provided by Dr. Garry R. Buettner (University of Iowa). CD138^+” for “CD138^+”

AIF1 [5] = assay: AIF1 immunolabeling electron microscopy in OCI-MY5 cells; format: cell-based, human; settings: OCI-MY5, PAA 2 mM (FIG. 4E)
Method: as §2
(§6) Electron microscopy was performed by the Central Microscopy Research Facility personnel at the University of Iowa. Images were captured on JEOL JEM 1230.

[6] = cited from earlier work
OCI-MY5 WT cells = assay: Transmission electron microscopy of PAA-treated OCI-MY5 WT cells; format: cell-based, human; settings: 4 mM PAA one hour, fixed after 60 and 120 min
Method: as §4, §6

[7] = test system: KMS11, ARK and ARP1 cells; assay: Erastin growth inhibition, PrestoBlue assay; format: cell-based, human; settings: ferrostatin (Fer-1) 1 μM with 10 μM Erastin, 48 hours
Method: FIG. 23. Erastin Inhibits MM Cells Growth. KMS11, ARK and ARP1 cells were treated with 10 μM Erastin with or without ferrostatin (Fer-1) at 1 μM for 48 hours. Cell proliferation was measured by PrestoBlue assay and normalized to control cells to calculated growth inhibition.

In the case of `O=C1O[C@H]([C@@H](O)CO)C(O)=C1O` [PAA, ascorbic acid], the “response to PAA of CD138+ cells from MGUS patients” value (CD138+ MM cells; 2 MGUS patients (FIG. 1C)) was “almost no response”, the “survival of CD138+ cells in vitro following PAA treatment” value (CD138+ MM cells; CD138+ cells from MM patients, PAA 1 hr, washed, cultured up to 24 h) was “significantly decreased; also recorded: increased killing” and the “effect of PAA on cell viability in SMM patients” value (CD138+ MM cells; cells from SMM patients (FIG. 1B)) was “same effect”. The “viability after PAA treatment, AIF1-shRNA cells versus scrambled sequence” value (OCI-MY5 cells; OCI-MY5 AIF1-shRNA (FIG. 4A top)) was “significantly higher”, the “PAA concentration able to kill cells” value (OCI-MY5 cells; OCI-MY5 EV cells) was 4 mM and the “viability after PAA treatment, OE-AIF1 cells versus empty vector” value (OCI-MY5 cells; OCI-MY5 OE-AIF1 (FIG. 4A bottom)) was “significantly less viability”. The “PAA concentration required to successfully kill cells” value (OCI-MY5 cells; OCI-MY5 OE-Fpn1 cells) was 20 mM, the “phosphorylated γ-H2AX level” value (γ-H2AX) was “induced γ-H2AX” and the “response of TRIP13-OE ARP1 cells to drug” value [1] was “sensitive”. For the same compound, the levels of ascorbate [2] was 20000 to 40000 µM, the “levels of ascorbyl radicals” value [2] was 0.5 µM and the “caspases 3, 8, and 9 activity (cleavage)” value (caspases 3, 8, and 9) was “marked increase”. The “MM cell growth (tumor burden) compared to the control group” value (ARP1 MM cells; FIG. 1D, PAA 4 mg/kg) was “inhibited MM cell growth significantly”, the “tumor burden with PAA in mice receiving iron chelator DFO at the same time” value (ARP1 MM cells; PAA 4 mg/kg IP once a day, DFO 100 mg/Kg twice a week IP (FIG. 25)) was “not able to decrease tumor burden” and the “tumor progression by IVIS” value (ARP1 MM cells; PAA 4 mg/kg, once per day, IP, 15 days vs saline) was “significantly delayed”. The “RIP1 and RIP3 cleavage” value (RIP1 and RIP3) was “cleaved”, the “AIF1 cleavage by western blotting” value (AIF1 [3]) was “increase in the AIF1 cleaved form” and the AIF1 nuclear translocation (AIF1 [4]) was “induces AIF1 nuclear translocation”. The “cell viability of CD138- BM cells following PAA treatment” value (CD138- non-MM cells) was “no significant change”, the “cellular localization of AIF1” value (AIF1 [5]) was “also in cytoplasm and nuclei” and the safety and tolerability ([6]; IV, animals and humans) was “safe and well tolerated”. The “plasma concentrations from pharmacological doses” value ([6]; intravenous (IV) administration) was no less than 10 mM and the “type of cell death by TEM” value (OCI-MY5 WT cells) was “early necrosis (FIG. 3A, 60 mins) followed by late apoptosis”.

In the case of “bathocuproinedisulfonic acid disodium salt [BCS]”, the “effect of pre-treatment on PAA-induced cell death” value (from here on “effect of pre-treatment”) (OCI-MY5 cells) was “not able to block cellular death”.

For `CC(C)C[C@H](NC(=O)[C@H](Cc1ccccc1)NC(=O)c1cnccn1)B(O)O` [bortezomib], the “growth inhibition in TRIP13-OE MM cells compared with EV controls” value ([1]; ARP1, 24 h, p<0.05 (FIGS. 27E, 27F)) was “significantly less growth inhibition”, the “response of TRIP13-OE ARP1 cells to drug” value [1] was “resistant” and the “MM cell growth (tumor burden) compared to the control group” value (ARP1 MM cells; FIG. 1D, PAA 4 mg/kg) was “inhibited MM cell growth significantly”. The AIF1 nuclear translocation (AIF1 [4]) was “does not increase AIF1 nuclear localization”.

For `N[C@@H](Cc1ccc(N(CCCl)CCCl)cc1)C(=O)O` [melphalan], the “phosphorylated γ-H2AX level” value (γ-H2AX) was “induced γ-H2AX”, the “MM cell growth (tumor burden) compared to the control group” value (ARP1 MM cells; FIG. 1D, PAA 4 mg/kg) was “inhibited MM cell growth significantly” and the “tumor burden compared among treatments” value (ARP1 MM cells; FIG. 1D, single agents vs combination) was “higher decrease in tumor burden”. For the same compound, the “time at which presence of tumor was detected” value (ARP1 MM cells; highest dose of melphalan, single agent) was “only after four weeks”, the “tumor burden at three weeks of treatment” value (ARP1 MM cells; melphalan 1, 3, 5 mg/kg with or without PAA (FIGS. 1E, 1F)) was “inhibit tumor growth better than PAA alone” and the “MM mouse survival, compared with PAA alone” value (ARP1 MM cells; single agent melphalan 3 and 5 mg/kg (FIG. 1G)) was “extended MM mouse survival”. For the same compound, the “AIF1 cleavage by western blotting” value (AIF1 [3]) was “not able to induce AIF1 cleavage”.

With catalase the “effect of pre-treatment” value (OCI-MY5 cells) was “resistant to PAA”.

With `CCOC(=O)c1ccc(NC2CCCCC2)c(N)c1` [ferrostatin] the “effect of ferroptosis inhibitor on erastin growth inhibition” value [7] was “can be reversed”.

With `CC(C)C[C@H](NC(=O)[C@H](CCc1ccccc1)NC(=O)CN1CCOCC1)C(=O)N[C@@H](Cc1ccccc1)C(=O)N[C@@H](CC(C)C)C(=O)[C@@]1(C)CO1` [carfilzomib] the “MM cell growth (tumor burden) compared to the control group” value (ARP1 MM cells; FIG. 1D, PAA 4 mg/kg) was “inhibited MM cell growth significantly”.

For `O=C([O-])CN(CC(=O)[O-])CC(=O)[O-].[Fe+3]` [Iron, ferric nitrilotriacatate], the “cell viability after iron pre-treatment and PAA” value (OCI-MY5 cells; OCI-MY5 EV cells, Fe-NTA 100 μM 18 hrs (FIG. 2C)) was “rapid decrease in cells viability” and the “cell viability after iron pre-treatment and PAA” value (OCI-MY5 cells; OCI-MY5 OE-Fpn1 cells, Fe-NTA 100 μM 18 hrs (FIG. 2D)) was “same effect”.

With `CC(=O)N[C@@H](CS)C(=O)O` [NAC, N-acetyl cysteine] the “effect of pre-treatment” value (OCI-MY5 cells) was “resistant to PAA”.
